The assay addresses T1, Androgen Receptor (Homo sapiens, UniProt P10275).
T1 construct: endogenous in cells; host or cells: VCaP cells
T1 sequence (P10275 1-920): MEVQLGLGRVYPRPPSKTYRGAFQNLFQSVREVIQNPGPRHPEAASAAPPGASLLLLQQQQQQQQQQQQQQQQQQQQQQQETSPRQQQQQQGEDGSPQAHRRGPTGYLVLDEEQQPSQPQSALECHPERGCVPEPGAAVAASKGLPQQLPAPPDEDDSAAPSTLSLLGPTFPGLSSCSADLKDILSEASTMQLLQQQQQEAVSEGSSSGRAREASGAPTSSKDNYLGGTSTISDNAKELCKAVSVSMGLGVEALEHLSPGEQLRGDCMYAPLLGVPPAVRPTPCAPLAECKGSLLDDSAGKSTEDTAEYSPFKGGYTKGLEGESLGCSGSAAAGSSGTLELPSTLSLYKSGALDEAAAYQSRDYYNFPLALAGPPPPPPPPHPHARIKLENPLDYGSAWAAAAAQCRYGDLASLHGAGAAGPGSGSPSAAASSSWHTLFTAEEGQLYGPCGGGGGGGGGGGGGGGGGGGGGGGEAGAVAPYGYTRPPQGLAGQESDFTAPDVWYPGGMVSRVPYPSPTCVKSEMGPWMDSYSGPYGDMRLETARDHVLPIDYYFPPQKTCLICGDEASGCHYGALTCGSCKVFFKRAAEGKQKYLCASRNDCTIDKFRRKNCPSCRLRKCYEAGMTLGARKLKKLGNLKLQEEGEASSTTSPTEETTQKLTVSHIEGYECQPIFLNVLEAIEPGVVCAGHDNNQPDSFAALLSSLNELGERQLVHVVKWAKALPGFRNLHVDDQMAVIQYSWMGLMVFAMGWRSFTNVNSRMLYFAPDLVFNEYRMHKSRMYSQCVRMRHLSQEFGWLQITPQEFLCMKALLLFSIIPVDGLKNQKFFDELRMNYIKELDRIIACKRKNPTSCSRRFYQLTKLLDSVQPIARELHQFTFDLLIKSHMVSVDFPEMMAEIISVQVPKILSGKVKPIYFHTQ
The assay is described as follows: Androgen Receptor ELISA assay (PathScan AR ELISA) in VCaP cells: AR degradation, Dmax and DC50. In kind it is cell-based. The settings on record: for DC50: read-out: VCaP DC50; for Dmax: VCaP. Summed up:
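VCaP cells in phenol red-free RPMI with 5% charcoal-stripped FBS were grown at least 3 days, then given compound as 7 half-log doses in 0.1% DMSO with 0.1 nM R1881 for 24 h. Lysates went into a sandwich AR ELISA with TMB read at 450 nm.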

The mark [1] stands for this setting: VCaP cells, Table 36, read-out: VCaP Dmax (%).
The mark [2] stands for this setting: read-out: VCaP Dmax (%), VCaP cells, Table 36.

Where two headings read alike, the source gives them in different places.

For the molecule `CC(C)[C@H](OCCN1CCN(c2ccc(C(=O)N[C@H]3C(C)(C)[C@H](Oc4ccc(C#N)c(Cl)c4)C3(C)C)cn2)CC1)C(=O)N[C@H](C(=O)N1C[C@H](O)C[C@H]1C(=O)NCc1ccc(Cl)cc1)C(C)(C)C` [Example 742, N-((1r,3r)-3-(3-chloro-4-cyanophenoxy)-2,2,4,4-tetramethylcyclobutyl)-6-(4-(2-(((S)-1-(((S)-1-((2S,4R)-2-((4-chlorobenzyl)carbamoyl)-4-hydroxypyrrolidin-1-yl)-3,3-dimethyl-1-oxoutan-2-yl)amino)-3-methyl-1-oxobutan-2-yl)oxy)ethyl)piperazin-1-yl)nicotinamide], the DC50 (VCaP cells, Table 36) was above 501 nM. The maximal degradation (Dmax) under setting [1] was below 25%.
As to `CC(C)[C@@H](C(=O)N1C[C@H](O)C[C@H]1C(=O)NCc1ccc(Cl)cc1OCCN1CCN(c2ccc(C(=O)N[C@H]3C(C)(C)[C@H](Oc4ccc(C#N)c(Cl)c4)C3(C)C)cn2)CC1)N1Cc2ccccc2C1=O` [Example 743, 6-(4-(2-(5-chloro-2-(((2S,4R)-4-hydroxy-1-((S)-3-methyl-2-(1-oxoisoindolin-2-yl)butanoyl)pyrrolidine-2-carboxamido)methyl)phenoxy)ethyl)piperazin-1-yl)-N-((1r,3r)-3-(3-chloro-4-cyanophenoxy)-2,2,4,4-tetramethylcyclobutyl) nicotinamide], the DC50 (VCaP cells, Table 36) is above 501 nM. Under setting [1], the Dmax was below 25%.
In the case of `Cc1ncsc1-c1ccc([C@H](C)NC(=O)[C@@H]2C[C@@H](O)CN2C(=O)[C@@H](NC(=O)CN2CCN(CCC3(c4ccc(C(=O)N[C@H]5C(C)(C)[C@H](Oc6ccc(C#N)c(Cl)c6)C5(C)C)cc4)COC3)CC2)C(C)(C)C)cc1` [Example 744, (2S,4R)-1-((S)-2-(2-(4-(2-(3-(4-(((1r,3r)-3-(3-chloro-4-cyanophenoxy)-2,2,4,4-tetramethylcyclobutyl)carbamoyl)phenyl)oxetan-3-yl)ethyl)piperazin-1-yl)acetamido)-3,3-dimethylbutanoyl)-4-hydroxy-N-((S)-1-(4-(4-methylthiazol-5-yl)phenyl)ethyl)pyrrolidine-2-carboxamide], the DC50 (VCaP cells, Table 36) is above 501 nM. Also, the Dmax (read-out: VCaP Dmax (%)) was below 25%.
Turning to `Cc1ncsc1-c1ccc([C@H](C)NC(=O)[C@@H]2C[C@@H](O)CN2C(=O)[C@H](NC(=O)CN2CCN(CCCc3ccc(C(=O)N[C@H]4C(C)(C)[C@H](Oc5ccc(C#N)c(C#N)c5)C4(C)C)cc3)CC2)C2COC2)cc1` [Example 745, (2S,4R)-1-((R)-2-(2-(4-(3-(4-(((1r,3r)-3-(3,4-dicyanophenoxy)-2,2,4,4-tetramethylcyclobutyl)carbamoyl)phenyl)propyl)piperazin-1-yl)acetamido)-2-(oxetan-3-yl)acetyl)-4-hydroxy-N-((S)-1-(4-(4-methylthiazol-5-yl)phenyl)ethyl)pyrrolidine-2-carboxamide], the DC50 (VCaP cells, Table 36) is above 501 nM. Also, under setting [2], the Dmax was below 25%.
Consider `Cc1ncsc1-c1ccc([C@H](C)NC(=O)[C@@H]2C[C@@H](O)CN2C(=O)[C@@H](NC(=O)CN2CCN(CCCc3ccc(C(=O)N[C@H]4C(C)(C)[C@H](Oc5ccc(C#N)c(C#N)c5)C4(C)C)cc3)CC2)C2COC2)cc1` [Example 746, (2S,4R)-1-((S)-2-(2-(4-(3-(4-(((1r,3r)-3-(3,4-dicyanophenoxy)-2,2,4,4-tetramethylcyclobutyl)carbamoyl)phenyl)propyl)piperazin-1-yl)acetamido)-2-(oxetan-3-yl)acetyl)-4-hydroxy-N-((S)-1-(4-(4-methylthiazol-5-yl)phenyl)ethyl)pyrrolidine-2-carboxamide], for which the DC50 (VCaP cells, Table 36) is above 501 nM. The Dmax under setting [2] was below 25%.
Regarding `Cc1ncsc1-c1ccc([C@H](C)NC(=O)[C@@H]2C[C@@H](O)CN2C(=O)[C@@H](NC(=O)CCCc2ccc(C(=O)N[C@H]3C(C)(C)[C@H](Oc4ccc(C#N)c(Cl)c4)C3(C)C)cc2)C(C)(C)C)cc1` [Example 747, (2S,4R)-1-((S)-2-(4-(4-(((1r,3S)-3-(3-chloro-4-cyanophenoxy)-2,2,4,4-tetramethylcyclobutyl)carbamoyl)phenyl)butan-amido)-3,3-dimethylbutanoyl)-4-hydroxy-N-((S)-1-(4-(4-methylthiazol-5-yl)phenyl)ethyl)pyrrolidine-2-carboxamide], where the note is “VCaP cells, Table 36”, the DC50 is above 501 nM. The Dmax under setting [1] was below 25%.
With `Cc1ncsc1-c1ccc([C@H](C)NC(=O)[C@@H]2C[C@@H](O)CN2C(=O)C(NC(=O)CCCCCc2ccc(C(=O)N[C@H]3C(C)(C)[C@H](Oc4ccc(C#N)c(Cl)c4)C3(C)C)cc2)C(C)(C)C)cc1` (stereo partly drawn) [Example 748, (2S,4R)-1-((S)-2-(6-(4-(((1r,3r)-3-(3-chloro-4-cyanophenoxy)-2,2,4,4-tetramethylcyclobutyl)carbamoyl)phenyl)hexan-amido)-3,3-dimethylbutanoyl)-4-hydroxy-N-((S)-1-(4-(4-methylthiazol-5-yl)phenyl)ethyl)pyrrolidine-2-carboxamide], the DC50 (VCaP cells, Table 36) is below 50 nM. Further, under setting [1], the Dmax is 26 to 50%.
The corresponding values for `Cc1ncsc1-c1ccc([C@H](C)NC(=O)C2C[C@@H](O)CN2C(=O)[C@@H](NC(=O)CCCCCCc2ccc(C(=O)N[C@H]3C(C)(C)[C@H](Oc4ccc(C#N)c(Cl)c4)C3(C)C)cc2)C(C)(C)C)cc1` (stereo partly drawn) [Example 749, (2S,4R)-1-((S)-2-(7-(4-(((1r,3r)-3-(3-chloro-4-cyanophenoxy)-2,2,4,4-tetramethylcyclobutyl)carbamoyl)phenyl)heptan-amido)-3,3-dimethylbutanoyl)-4-hydroxy-N-((S)-1-(4-(4-methylthiazol-5-yl)phenyl)ethyl)pyrrolidine-2-carboxamide] are below 50 nM and above 71%.
The corresponding values for `Cc1ncsc1-c1ccc([C@H](C)NC(=O)[C@@H]2C[C@@H](O)CN2C(=O)[C@H](NC(=O)CN2CCN(CCCc3ccc(C(=O)N[C@H]4C(C)(C)[C@H](Oc5ccc(C#N)c(Cl)c5)C4(C)C)cc3)CC2)C2COC2)cc1` [Example 750, (2S,4R)-1-((R)-2-(4-(4-(3-(4-(((1r,3r)-3-(3-chloro-4-caynophenoxy)-2,2,4,4-tetramethylcyclobutyl)carbamoyl)phenyl)propyl)piperazin-1-yl)acetamido)-2-(oxetan-3-yl)acetyl)-4-hydroxy-N-((S)-1-(4-(4-methylthiazol-5-yl)phenyl)ethyl)pyrrolidine-2-carboxamide] are above 501 nM and below 25%.
The corresponding values for `Cc1ncsc1-c1ccc([C@H](C)NC(=O)[C@@H]2C[C@@H](O)CN2C(=O)[C@@H](NC(=O)CN2CCN(CCCc3ccc(C(=O)N[C@H]4C(C)(C)[C@H](Oc5ccc(C#N)c(Cl)c5)C4(C)C)cc3)CC2)C2COC2)cc1` [Example 751, (2S,4R)-1-((S)-2-(2-(4-(3-(4-(((1r,3r)-3-(3-chloro-4-cyanophenoxy)-2,2,4,4-tetramethylcyclobutyl)carbamoyl)phenyl)propyl)piperazin-1-yl)acetamido)-2-(oxetan-3-yl)acetyl)-4-hydroxy-N-((S)-1-(4-(4-methylthiazol-5-yl)phenyl)ethyl)pyrrolidine-2-carboxamide] are above 501 nM and below 25%.

These data come from patent US11427548B2 (Arvinas Operations, Inc., priority 2015, dated 2022).
